Patent US20040106545A1, “Compounds and methods for modulating cell adhesion” (priority 1996, published 2004)
Entries after “also recorded” stand apart in the source; their conditions may differ. Like-named read-outs stand apart in the source and are kept apart here. Positions of bridges follow the written chain, without caps; N, C: chain ends. Residues, ends and D or L forms follow the SMILES beside them.

Columns and labels:
[1] = tested on: Bovine pulmonary artery endothelial cells; assay: Disruption of bovine endothelial cell adhesion; type: cell-based; settings: 500 μg/ml, 30 minutes
Procedure: For use within one such assay, bovine pulmonary artery endothelial cells may be harvested by sterile ablation and digestion in 0.1% collagenase (type II; Worthington Enzymes, Freehold, N.J.). Cells may be maintained in Dulbecco's minimum essential medium supplemented with 10% fetal calf serum and 1% antibiotic-antimycotic at 37° C. in 7% CO2 in air. Cultures may be passaged weekly in trypsin-EDTA and seeded onto tissue culture plastic at 20,000 cells/cm^2. Endothelial cultures may be used at 1 week in culture, which is approximately 3 days after culture confluency is established. The cells may be seeded onto coverslips and treated (e.g., for 30 minutes) with modulating agent or a control compound at, for example, 500 μg/ml and then fixed with 1% paraformaldehyde. As noted above, disruption of cell adhesion may be determined visually within 24 hours, by observing retraction of the cells from one another. This assay evaluates the effect of a modulating agent on N-cadherin mediated cell adhesion.
Bovine pulmonary artery endothelial cells were harvested by sterile ablation and digestion in 0.1% collagenase (type II; Worthington Enzymes, Freehold, N.J.). Cells were maintained in Dulbecco's minimum essential medium (Clonetics, San Diego, Calif.) supplemented with 10% fetal calf serum (Atlantic Biologicals, Nor cross, Ga.) and 1% antibiotic-antimycotic at 37° C. in 7% CO2 in air. Cultures were passaged weekly in trypsin-EDTA (Gibco, Grand Island, N.Y.) and seeded onto tissue culture plastic at 20,000 cells/cm^2 for all experiments. Endothelial cultures were used at 1 week in culture, which is approximately 3 days after culture confluency was established. The cells used in all protocols were between 4th passage and 10th passage. The cells were seeded onto coverslips and treated 30 minutes with N—Ac-CHAVC-NH2 (SEQ ID NO:10) or N—Ac-CHGVC-NH2 (SEQ ID NO:11) at 500 μg/ml and then fixed with 1% paraformaldehyde.

N-cadherin = target: T1, N-cadherin (Gallus gallus, UniProt P10288); assay: Neurite outgrowth inhibition, rat neurons (Example 21); type: cell-based; settings: 250 μg/mL; for inhibition at 250 µg/mL: read-out: % Inhibition of neurite outgrowth
T1 construct: expressed in transfected cells; host or cells: 3T3 fibroblasts (monolayer)
T1 sequence (P10288 165-912): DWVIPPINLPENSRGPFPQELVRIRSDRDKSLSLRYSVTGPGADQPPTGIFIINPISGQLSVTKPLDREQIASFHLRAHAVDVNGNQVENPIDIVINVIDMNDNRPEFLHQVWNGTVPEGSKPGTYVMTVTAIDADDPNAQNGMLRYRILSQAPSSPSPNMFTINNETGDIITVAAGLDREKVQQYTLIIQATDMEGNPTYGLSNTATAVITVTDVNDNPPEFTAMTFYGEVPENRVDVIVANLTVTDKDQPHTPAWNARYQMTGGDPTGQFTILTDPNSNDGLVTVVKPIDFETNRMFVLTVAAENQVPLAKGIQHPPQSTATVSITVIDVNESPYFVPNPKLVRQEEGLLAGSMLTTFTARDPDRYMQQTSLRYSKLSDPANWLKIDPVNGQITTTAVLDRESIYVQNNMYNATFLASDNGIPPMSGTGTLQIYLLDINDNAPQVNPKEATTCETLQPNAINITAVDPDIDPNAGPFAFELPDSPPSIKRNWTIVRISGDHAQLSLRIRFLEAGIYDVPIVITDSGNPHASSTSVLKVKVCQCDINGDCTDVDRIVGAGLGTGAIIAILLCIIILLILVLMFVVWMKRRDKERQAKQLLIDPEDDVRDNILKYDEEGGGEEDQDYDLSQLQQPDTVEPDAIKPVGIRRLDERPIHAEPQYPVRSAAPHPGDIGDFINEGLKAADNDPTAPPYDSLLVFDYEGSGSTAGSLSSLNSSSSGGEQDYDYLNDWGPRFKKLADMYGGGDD

PC-3 = assay: Cytotoxicity, MTT assay, PC-3; type: cell-based, human
In short: (§1)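 Cytotoxicity of N-Ac-CHAVC-NH2 and the control peptide N-Ac-CHGVC-NH2 was assessed by MTT reduction in human endothelial, fibroblast and cancer cell lines at concentrations up to 100 μM. Proliferation was measured separately by ^3H-thymidine incorporation over the same concentration range.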

chick N-cadherin = target: T2, chick N-cadherin (Gallus gallus, UniProt P10288); assay: Neurite outgrowth of rat cerebellar neurons on N-cadherin expressing 3T3 monolayers (Example 15); type: cell-based; settings: for inhibitory activity on N-cadherin dependent neurite outgrowth, structure/activity statements: Tables 8 and 9; for effect on neurite outgrowth over N-cadherin expressing cells (in words): 500 μg/mL
T2 construct: expressed in transfected cells; host or cells: 3T3 fibroblasts (monolayer); rat post-natal day 2-3 cerebellar neurons plated on top
T2 sequence (P10288 165-912): T1 sequence (P10288 165-912)

MDA-MB231 = assay: Cytotoxicity, MTT assay, MDA-MB231; type: cell-based, human
In short: as §1

CC[C@H](C)[C@@H]1NC(=O)[C@H](CC(=O)O)NC(=O)[C@H](C(C)C)NC(=O)[C@H](C)NC(=O)[C@H](Cc2c[nH]cn2)NC(=O)[C@H](C)NC(=O)[C@@H](NC(C)=O)CSSC[C@@H](C(N)=O)NC1=O (Ac-CAHAVDIC-NH2; disulfide 1-8)
effect on endothelial cell monolayer / morphology ([1]; listed as N—Ac-CAHAVDIC-NH2): neither of the cyclic peptides show activity; also recorded: had no effect on endothelial cell morphology | inhibition at 250 µg/mL (N-cadherin): 82% | IC50 (PC-3): > 100 µM | inhibition of N-cadherin dependent neurite outgrowth (in words) (chick N-cadherin; 250 μg/mL): potent inhibitors of neurite outgrowth | activity on N-cadherin dependent neurite outgrowth (in words) (chick N-cadherin; 125 micrograms/mL or below): lost activity | inhibitory activity on N-cadherin dependent neurite outgrowth, structure/activity statements (chick N-cadherin): reduced, but did not eliminate, the activity | IC50 (MDA-MB231): > 100 µM

CC(=O)N[C@H]1CSSC[C@@H](C(N)=O)NC(=O)[C@H](CC(=O)O)NC(=O)[C@H](C(C)C)NC(=O)[C@H](C)NC(=O)[C@H](Cc2c[nH]cn2)NC(=O)[C@H](C)NC1=O [N—Ac—CAHAVDC—NH2, N-Ac-Cys-Ala-His-Ala-Val-Asp-Cys-NH2] (Ac-CAHAVDC-NH2; disulfide 1-7)
effect on endothelial cell monolayer / morphology [1]: endothelial cells retracted from one another; also recorded: had a slight effect | IC50 (PC-3): > 100 µM | inhibitory activity on N-cadherin dependent neurite outgrowth, structure/activity statements (chick N-cadherin): completely eliminated inhibitory activity | IC50 (MDA-MB231): > 100 µM

CC(=O)N[C@H]1CSSC[C@@H](C(N)=O)NC(=O)[C@H](C(C)C)NC(=O)[C@H](C)NC(=O)[C@H](Cc2c[nH]cn2)NC1=O [N—Ac—CHAVC—NH2, N-Ac-Cys-His-Ala-Val-Cys-NH2]
effect on endothelial cell monolayer / morphology [1]: endothelial cells retracted from one another; also recorded: disrupted the endothelial cell monolayer | inhibition of neurite outgrowth (in words) (N-cadherin): significantly inhibited neurite outgrowth | inhibition at 250 µg/mL (N-cadherin): 65% | IC50 (PC-3; human): > 100 µM | effect on neurite outgrowth over N-cadherin expressing cells (in words) (chick N-cadherin): inhibition of neurite outgrowth | effect on the N-cadherin response (chick N-cadherin; concentrations up to 62 μg/ml): no significant effect on the N-cadherin response | IC50 (MDA-MB231; human): > 100 µM

CC(=O)N[C@H]1CSSC[C@@H](C(N)=O)NC(=O)[C@H](C(C)C)NC(=O)CNC(=O)[C@H](Cc2c[nH]cn2)NC1=O [N—Ac—CHGVC—NH2, reference compound]
effect on endothelial cell monolayer / morphology [1]: had no affect on the cells | inhibition at 250 µg/mL (N-cadherin): 0% | IC50 (PC-3): > 100 µM | effect on neurite outgrowth over N-cadherin expressing cells (in words) (chick N-cadherin): had no effect on neurite outgrowth | IC50 (MDA-MB231): > 100 µM
